Assay results published in patent US20250170112A1, “ADENOSINE LIGANDS FOR THE TREATMENT OF NEUROLOGICAL DISORDERS” (Lucy Therapeutics, Inc., priority 2022, published 2025).

Legend:
[1] = target: T1, human Adenosine A1 receptor (Homo sapiens, UniProt P30542); test: GTPγS scintillation proximity assay, agonist testing; format: biochemical; conditions: agonist activity; membrane extracts of CHO-K1 cells expressing recombinant human A1; read-out: A1AR EC50
T1 construct: host or cells: CHO-K1
T1 sequence (P30542 1-326): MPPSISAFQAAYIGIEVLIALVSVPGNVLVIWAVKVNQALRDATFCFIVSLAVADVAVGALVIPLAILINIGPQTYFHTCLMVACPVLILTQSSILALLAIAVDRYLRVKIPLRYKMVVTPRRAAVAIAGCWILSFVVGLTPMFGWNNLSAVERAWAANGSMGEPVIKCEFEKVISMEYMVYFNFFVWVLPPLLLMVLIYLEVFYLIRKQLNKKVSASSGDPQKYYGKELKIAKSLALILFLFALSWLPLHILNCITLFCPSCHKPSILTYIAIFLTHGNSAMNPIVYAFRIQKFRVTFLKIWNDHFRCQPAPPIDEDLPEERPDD
Summary of the method: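 Agonist-stimulated [35S]GTPγS binding to membranes of CHO-K1 cells expressing recombinant human A1 receptor, in 20 mM HEPES pH 7.4, 100 mM NaCl, 10 μg/mL saponin, with receptor-optimized MgCl2 and GDP. GTPγ[35S] 0.1 nM final with WGA SPA beads; 1 h at room temperature, then scintillation counting.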

human A2B = target: T2, human A2B (Homo sapiens, UniProt P29275); test: cAMP HTRF assay for Gs coupled receptor, agonist test; format: cell-based; conditions: agonist activity; HEK293 cells expressing recombinant human A2B; read-out: A2BAR EC50
T2 construct: expressed in transfected cells; host or cells: HEK293
T2 sequence (P29275 1-332): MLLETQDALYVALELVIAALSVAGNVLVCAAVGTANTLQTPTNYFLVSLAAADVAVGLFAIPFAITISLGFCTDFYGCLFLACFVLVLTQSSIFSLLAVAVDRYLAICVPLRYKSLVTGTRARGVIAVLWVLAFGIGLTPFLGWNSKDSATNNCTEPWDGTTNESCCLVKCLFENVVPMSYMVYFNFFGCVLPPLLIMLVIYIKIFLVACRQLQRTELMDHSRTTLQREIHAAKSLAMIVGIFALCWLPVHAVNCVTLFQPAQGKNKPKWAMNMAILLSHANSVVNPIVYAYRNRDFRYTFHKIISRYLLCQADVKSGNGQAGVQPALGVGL
Summary of the method: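 Recombinant cells were incubated 30 min at room temperature with increasing agonist concentrations. Lysis buffer with cAMP-d2 and anti-cAMP cryptate was added, with 1 h at room temperature before the HTRF fluorescence ratio was read. Reference compounds were run in parallel.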

| EC50 [1] [nM] | EC50 (human A2B) [nM] | SMILES |
| --- | --- | --- |
| 227 | > 10000 | COC1CC(Oc2ccc(-c3c(C#N)c(N)nc(SCC4COC4)c3C#N)cc2)C1 (stereo not drawn) [Compound 323] |
| 905 | 749 | N#Cc1c(SCc2cccnn2)nc(C2CC2)c(C#N)c1-c1ccc(OCCOC2COC2)cc1 [Compound 242] |
| > 10000 | > 10000 | CNc1nc(SCc2cccnc2)c(C#N)c(-c2ccc(OCCOC)cc2)c1C#N [Compound 284] |
| 308 | > 10000 | CNc1nc(OCC2COC2)c(C#N)c(-c2ccc(OC3COC3)cc2)c1C#N [Compound 288] |
| 23.9 | > 10000 | COCCOc1ccc(-c2c(C#N)c(SCc3cccnc3)nc(N3CC(F)C3)c2C#N)cc1 [Compound 277] |
| > 10000 | > 10000 | N#Cc1c(N)nc(SCCC(F)(F)F)c(C#N)c1-c1ccc(OC2CCCOC2)cc1 (stereo not drawn) [Compound 325] |
| 1.5 | 0.06 | N#Cc1c(N)nc(SCc2cccnn2)c(C#N)c1-c1ccc(OCCO)cc1 [Compound 178] |
| > 10000 | > 10000 | N#Cc1c(N)nc(OCC2CCCCO2)c(C#N)c1-c1ccc(OC2COC2)cc1 (stereo not drawn) [Compound 299] |
| 164 | 49.3 | N#Cc1c(N)nc(SCc2cccnc2)c(C#N)c1-c1ccc(O[C@@H]2CCOC2)cc1 [Compound 236] |
| 88.7 | > 10000 | CC(C)(O)COc1ccc(-c2c(C#N)c(N)nc(SCC3COC3)c2C#N)cc1 [Compound 317] |
| > 10000 | > 10000 | CN(C)c1nc(SCc2cccnc2)c(C#N)c(-c2ccc(OC(F)(F)CO)cc2)c1C#N [Compound 254] |
| 1100 | > 10000 | N#Cc1c(N)nc(SCC2COCOC2)c(C#N)c1-c1ccc(OC2COC2)cc1 [Compound 297] |
| 1.62 | 5360 | N#Cc1c(N)nc(SCc2cccnn2)c(C#N)c1-c1ccc(OCCOC(F)F)cc1 [Compound 237] |
| 34 | 7.1 | N#Cc1c(N)nc(SCc2ncccn2)c(C#N)c1-c1ccc(OCCO)cc1 [Compound 176] |
| 8.1 | 0.5 | N#Cc1c(N)nc(SCc2ccncc2)c(C#N)c1-c1ccc(OCCO)cc1 [Compound 174] |
| 73.2 | > 10000 | N#Cc1c(SCC2COC2)nc(N2CCC2)c(C#N)c1-c1ccc(OC2COC2)cc1 [Compound 293] |
| 167 | > 10000 | N#Cc1c(N)nc(SCC2OCCO2)c(C#N)c1-c1ccc(OC2COC2)cc1 [Compound 304] |
| > 10000 | > 10000 | COCCOc1ccc(-c2c(C#N)c(SCc3cccnn3)nc(N3CC(F)C3)c2C#N)cc1 [Compound 238] |
| > 10000 | > 10000 | COCCOc1ccc(-c2c(C#N)c(N)nc(SCc3nccc4[nH]ccc34)c2C#N)cc1 [Compound 217] |
| 1.22 | 2.02 | N#Cc1c(N)nc(SCc2cccnn2)c(C#N)c1-c1ccc(OC2COC2)cc1 [Compound 234] |

Second part, the compound before the results:

| SMILES | EC50 [1] [nM] | EC50 (human A2B) [nM] |
| --- | --- | --- |
| N#Cc1c(N)nc(SCc2cccc(OC(F)(F)F)c2)c(C#N)c1-c1ccc(OC2COC2)cc1 [Compound 29] | 79 | 6120 |
| COCCOc1ccc(-c2c(C#N)c(C)nc(N)c2C#N)cc1 [Compound 39, 2-Amino-4-[4-(2-methoxyethoxy)phenyl]-6-methyl-pyridine-3,5-dicarbonitrile] | 862 | > 10000 |
| Cc1ncccc1CSc1nc(N2CCCC2)c(C#N)c(-c2ccc(OCCO)cc2)c1C#N [Compound 76] | > 10000 | 4370 |
| N#Cc1c(N)nc(SCC2CCOC2)c(C#N)c1-c1ccc(OC2COC2)cc1 (stereo not drawn) [Compound 24] | 9.8 | > 10000 |
| COCCOc1ccc(-c2c(C#N)cnc(SCC3COC3)c2C#N)cc1 [Compound 64] | 281 | > 10000 |
| N#Cc1c(N)nc(SCC2CCCOC2)c(C#N)c1-c1ccc(OC2COC2)cc1 (stereo not drawn) [Compound 9] | 884 | 2490 |
| N#Cc1c(N)nc(SCc2ccccc2)c(C#N)c1-c1ccc(OCCO)cc1 [Compound 150] | 12 | 4.2 |
| N#Cc1c(N)nc(SCc2cccnc2)c(C#N)c1-c1ccc(OC2COC2)cc1 [Compound 66] | 2.5 | 0.2 |
| Cc1ccc(CSc2nc(N3CCC3)c(C#N)c(-c3ccc(OCCO)cc3)c2C#N)cn1 [Compound 69] | 201 | 26.3 |
| N#Cc1c(SCc2cncnc2)nc(N2CCC2)c(C#N)c1-c1ccc(OCCO)cc1 [Compound 23] | 100 | 420 |
| COCCSc1nc(N)c(C#N)c(-c2ccc(OCCO)cc2)c1C#N [Compound 151] | 61 | 28 |
| N#Cc1c(N)nc(SCc2cccc3occc23)c(C#N)c1-c1ccc(OCCO)cc1 [Compound 7] | > 10000 | 150 |
| N#Cc1c(N)nc(SCc2cccc3[nH]ccc23)c(C#N)c1-c1ccc(OCCO)cc1 [Compound 8] | 37.1 | 37.7 |
| N#Cc1c(N)nc(SCCC(F)(F)F)c(C#N)c1-c1ccc(OCCO)cc1 [Compound 113] | 316 | ≥ 10000 |
| COCCOc1ccc(-c2c(C#N)c(SCc3cncnc3)nc(N3CCC3)c2C#N)cc1 [Compound 30] | 3090 | > 10000 |
| COCCOc1ccc(-c2c(C#N)c(SCc3cccnc3)nc(N3CCC3)c2C#N)cc1 [Compound 115] | 31 | > 10000 |
